Laboratory results taken from PMC6149664, “Synthesis and In Vitro Antimycobacterial Activity of Novel N-Arylpiperazines Containing an Ethane-1,2-diyl Connecting Chain” (Molecules : A Journal of Synthetic Chemistry and Natural …, 2017).
≈ marks a conversion by molar mass, not a printed value. Like-named read-outs stand apart in the source and are kept apart here.

Assays:
[1] = tested on: M. kansasii CNCTC My 235/80 (identical with ATCC 12478); assay: In vitro antimycobacterial MIC, dilution-micromethod in Šula semisynthetic medium; assay type: cell-based, Mycobacterium kansasii
[2] = tested on: M. kansasii 6 509/96 clinical isolate; assay: as above; assay type: cell-based; conditions: Mycobacterium kansasii, read-out: MIC, MK 6 509/96
[3] = tested on: M. tuberculosis CNCTC My 331/88 (identical with H37Rv and ATCC 2794); assay: as above; assay type: cell-based; conditions: Mycobacterium tuberculosis
[4] = tested on: M. avium CNCTC My 330/80 (identical with ATCC 25291); assay: as above; assay type: cell-based; conditions: Mycobacterium avium
[5] = tested on: M. avium hominissuis CIT10/08; assay: In vitro antimycobacterial MIC (IC90), alamarBlue 96-well assay in Middlebrook broth; assay type: cell-based, Mycobacterium avium hominissuis; conditions: Mycobacterium avium, 168 h, 7 days incubation, read-out: MIC, MAH CIT10/08
[6] = tested on: M. avium subsp. paratuberculosis CIT03; assay: microbe, parasite or virus in culture; assay type: cell-based; conditions: Mycobacterium avium, 168 h, read-out: MIC, MAP CIT03
[7] = tested on: M. avium intracellulare ATCC 13950; assay: In vitro antimycobacterial MIC (IC90), alamarBlue 96-well assay in Middlebrook broth; assay type: cell-based, Mycobacterium avium intracellulare; conditions: Mycobacterium avium, ATCC13950, 168 h, 7 days incubation, read-out: MIC, MAI ATCC 13950
M. kansasii CIT11/06 = assay: as above; assay type: cell-based, Mycobacterium kansasii; conditions: 7 days incubation, read-out: MIC, MK CIT11/06
[8] = Mycobacterium kansasii, ATCC12478, 168 h, 7 d cultivation, read-out: MIC, MK My 235/80
[9] = Mycobacterium kansasii, ATCC12478, 336 h, 14 d cultivation, read-out: MIC, MK My 235/80
[10] = Mycobacterium kansasii, ATCC12478, 336 h, both M. kansasii strains, depending on strain and number of days of incubation (standards: 14-d/21-d), read-out: MIC against M. kansasii My 235/80 and M. kansasii 6 509/96
[11] = Mycobacterium kansasii, ATCC12478, 504 h, 21 d cultivation, read-out: MIC, MK My 235/80
[12] = both M. kansasii strains, depending on strain and number of days of incubation (standards: 14-d/21-d), read-out: MIC against M. kansasii My 235/80 and M. kansasii 6 509/96
[13] = 336 h, 14 d cultivation, read-out: MIC, MT My 331/88
[14] = 504 h, 21 d cultivation, read-out: MIC, MT My 331/88
[15] = ATCC25291, 336 h, 14 d cultivation, read-out: MIC, MA My 330/88
[16] = ATCC25291, 504 h, 21 d cultivation, read-out: MIC, MA My 330/88
[17] = Mycobacterium kansasii, CIT11/06, 168 h

CC[C@@H](CO)NCCN[C@@H](CC)CO [EMB, ethambutol, reference compound]
MIC [1, 8]: 1 µM (≈ 0.204 µg/mL) | MIC [1, 9]: 2 µM (≈ 0.409 µg/mL) | MIC [1, 10]: 1 µM (≈ 0.204 µg/mL) | MIC [1, 11]: 2 µM (≈ 0.409 µg/mL) | MIC [1, 12]: 2 µM (≈ 0.409 µg/mL) | MIC ([2]; 168 h, 7 d cultivation): 1 µM (≈ 0.204 µg/mL) | MIC ([2]; 336 h, 14 d cultivation): 2 µM (≈ 0.409 µg/mL) | MIC ([2]; 504 h, 21 d cultivation): 2 µM (≈ 0.409 µg/mL) | MIC [3, 13]: 1 µM (≈ 0.204 µg/mL) | MIC [3, 14]: 2 µM (≈ 0.409 µg/mL) | MIC ([4]; ATCC25291, 336 h, 14-d/21-d, read-out: MIC against M. avium CNCTC My 330/80): 16 µM (≈ 3.27 µg/mL) | MIC [4, 15]: 16 µM (≈ 3.27 µg/mL) | MIC [4, 16]: 16 µM (≈ 3.27 µg/mL)

NC(=O)c1cnccn1 [PZA, pyrazinamide, reference compound]
MIC [5]: 487 µM (≈ 60 µg/mL) | MIC [6]: > 2030 µM | MIC [7]: > 2030 µM | MIC (M. kansasii CIT11/06; [17]): > 2030 µM

CC1COc2c(N3CCN(C)CC3)c(F)cc3c(=O)c(C(=O)O)cn1c23 (stereo not shown) [OFLX, ofloxacin, reference compound]
MIC [1, 8]: 0.5 µM (≈ 0.181 µg/mL) | MIC [1, 9]: 1 µM (≈ 0.361 µg/mL) | MIC [1, 10]: 0.5 µM (≈ 0.181 µg/mL) | MIC [1, 11]: 1 µM (≈ 0.361 µg/mL) | MIC [1, 12]: 1 µM (≈ 0.361 µg/mL) | MIC ([2]; 168 h, 7 d cultivation): 0.5 µM (≈ 0.181 µg/mL) | MIC ([2]; 336 h, 14 d cultivation): 0.5 µM (≈ 0.181 µg/mL) | MIC ([2]; 504 h, 21 d cultivation): 1 µM (≈ 0.361 µg/mL) | MIC [3, 13]: 1 µM (≈ 0.361 µg/mL) | MIC [3, 14]: 2 µM (≈ 0.723 µg/mL) | MIC [4, 15]: 32 µM (≈ 11.6 µg/mL) | MIC [4, 16]: 62.5 µM (≈ 22.6 µg/mL)

NNC(=O)c1ccncc1 [INH, isonicotinic acid hydrazide, reference compound]
MIC [1, 8]: > 250 µM | MIC [1, 9]: > 250 µM | MIC [1, 11]: > 250 µM | MIC ([2]; 168 h, 7 d cultivation): 4 µM (≈ 0.549 µg/mL) | MIC ([2]; 336 h, 14 d cultivation): 8 µM (≈ 1.1 µg/mL) | MIC ([2]; 504 h, 21 d cultivation): 8 µM (≈ 1.1 µg/mL) | MIC ([3]; 336 h, 14-d/21-d cultivation, read-out: MIC against M. tuberculosis CNCTC My 331/88): 0.5 µM (≈ 0.0686 µg/mL) | MIC [3, 13]: 0.5 µM (≈ 0.0686 µg/mL) | MIC [3, 14]: 0.5 µM (≈ 0.0686 µg/mL) | MIC [5]: > 1820 µM | MIC [6]: > 1820 µM | MIC [7]: > 1820 µM | MIC [4, 15]: > 250 µM | MIC [4, 16]: > 250 µM | MIC (M. kansasii CIT11/06; [17]): > 1820 µM

O=C(O)c1cn(C2CC2)c2cc(N3CCNCC3)c(F)cc2c1=O [CPX, ciprofloxacin, reference compound]
MIC (M. kansasii CIT11/06): >91 µM | MIC (M. kansasii CIT11/06; [17]): > 91 µM
